These results are taken from PubChem BioAssay (NCI).

Holding throughout (assay): NCI tumour cell line growth inhibition, 48 h
In test [1] the test system is HOP-62 NSCLC.
The subject of test [2] is HS 578T breast.
Test [3] has as its system LOX IMVI melanoma.
In test [4] the test system is OVCAR-3 ovarian.
Test [5] has as its system RXF 393 renal.
For test [6], the system named is SF-268 CNS.
Test [7] deals with SK-MEL-2 melanoma.
In test [8] the test system is SK-MEL-28 melanoma.
Test [9] relates to SNB-19 CNS.
Test [10] has as its system UO-31 renal.

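Grown in 96-well plates, cells were treated for 48 hours with each compound at five concentrations. Insufficient inhibition: endpoint recorded as highest concentration tested. TGI marks complete inhibition of growth.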 A value given as a limit tells only on which side of the number the result lay.

As to `N/C(=N\S(=O)(=O)c1cccc2nsnc12)Nc1ccc(Cl)cc1`, the TGI in [1] was > 100 µM; in test [2], 68.9 µM; in [3], 85.8 µM; in test [4] it was > 100 µM; in test [5], > 100 µM; in test [6], > 100 µM. For the same compound, the TGI in test [7] was 26.3 µM; in test [8], 71.8 µM; in [9], > 100 µM; in test [10] it was > 100 µM.
Regarding `CS(=O)(=O)OC1CN2CCC1CC2` (stereo not given), the TGI in [1], in test [2], in test [3], in test [4], in test [5] and in [6] was > 100 µM in each case. Moreover, the TGI in [7], in test [8], in test [9] and in test [10] was > 100 µM in each case.
For the compound `Nc1cc2c(nnn2C2OC(COCc3ccccc3)C(OCc3ccccc3)C2OCc2ccccc2)c(=O)[nH]1` (stereo not given), the TGI in test [1] was > 100 µM; in [2] it was > 100 µM; in test [3] it was 53.2 µM; in [4], > 100 µM; in [5], 39.5 µM; in test [6], > 100 µM. Also, the TGI in [7] is 28.3 µM; in test [8], > 100 µM; in [9], > 100 µM; in test [10], > 100 µM.
`CCCCCCNC(=O)c1cc(CCc2cc(O)ccc2O)ccc1O`: the TGI was determined as 25 µM in [1]; 26.4 µM in test [2]; 19.3 µM in test [3]; 5.94 µM in test [4]; 4.39 µM in test [5]; 9.9 µM in test [6]. In addition, the TGI in test [7] was 7.4 µM; in test [8], 7.37 µM; in [9], > 50.6 µM; in test [10], 2.98 µM.
Consider `O=C1CS(=O)(=O)C(c2cccc(Oc3ccccc3)c2)N1c1cccc(Cl)c1` (stereo not given), for which the TGI is > 100 µM in test [1]; 97 µM in test [2]; 32.1 µM in test [3]; 95.1 µM in test [4]; 52.7 µM in [5]; 76.7 µM in [6]. For the same compound, the TGI is 33.2 µM in test [7], > 100 µM in test [8], > 100 µM in test [9] and > 100 µM in test [10].
Regarding `O=S1(=O)C(c2ccccc2)C(N2CCCCC2)C1C1CC2c3ccccc3C1c1ccccc12` (stereo not given), the TGI in test [1], in test [2], in [3], in test [4], in test [5] and in test [6] was > 100 µM each time. Besides, the TGI in test [7], in test [8], in test [9] and in test [10] was > 100 µM in each case.
For `Cc1cccc2cc3c(ccc4ccccc43)c[n+]12`, the TGI in test [1] is > 100 µM; in test [2], 24.6 µM; in test [3], > 100 µM; in test [4], 16.9 µM; in [5], > 100 µM; in test [6], 14.2 µM. For the same compound, the TGI was 48.3 µM in test [7], 34.3 µM in test [8], 50.9 µM in test [9] and > 100 µM in test [10].
With `N#CC(c1ccnc(Cl)n1)c1nc2ccccc2s1` (stereo not given), the TGI is 56.8 µM in test [1]; 28.4 µM in test [2]; > 33.9 µM in test [3]; 26.2 µM in [4]; > 62.7 µM in test [5]; > 63.6 µM in test [6]. Further, the TGI in [7] is 28.1 µM; in test [8], > 100 µM; in test [9], > 75.1 µM; in [10], 28.4 µM.
On to `CC(=O)c1c(SCCN2CCCC2)n(-c2ccccc2)c(=S)n(-c2ccccc2)c1=O`, for which the TGI in test [1] is 55 µM; in test [2], 54.2 µM; in test [3], 9.04 µM; in test [4], 7.22 µM; in test [5] it was 5.63 µM; in [6] it was 33.2 µM. For the same compound, the TGI in [7] was 50.8 µM; in [8], 14.2 µM; in [9], > 77.1 µM; in [10], 2.73 µM.
Regarding `CC(=O)Oc1c(C)c2c(O)c3c1C1=C(OCOC1=C(C)C3=O)/C(C)=C\C(C)(O)C(O)C(C)C(O)C1C(=O)OC(C(C)C1O)C(C)(O)/C=C/C=C(C)C(=O)N2` (stereo not given), the TGI in [1] is > 100 µM; in [2], > 100 µM; in test [3], > 100 µM; in [4], > 100 µM; in test [5], 70.4 µM; in [6] it was > 100 µM. For the same compound, the TGI in test [7] is > 100 µM; in [8], > 100 µM; in test [9], > 100 µM; in test [10], 46.5 µM.
